Patent publication US20020054880A1, “Anti-inflammatory, tolerogenic and immunoinhibiting properties of carbohydrate binding-peptides” (priority 1992, published 2002)
Where two headings read alike, the source gives them in different places.

What was measured:
[1] = biological target: T1, asialoagalactofetuin (Bos taurus, UniProt P12763); settings: ACS2P1-biotin 10 μg/ml; glycoprotein 3 μg/ml; n=3
T1 sequence (P12763 19-359): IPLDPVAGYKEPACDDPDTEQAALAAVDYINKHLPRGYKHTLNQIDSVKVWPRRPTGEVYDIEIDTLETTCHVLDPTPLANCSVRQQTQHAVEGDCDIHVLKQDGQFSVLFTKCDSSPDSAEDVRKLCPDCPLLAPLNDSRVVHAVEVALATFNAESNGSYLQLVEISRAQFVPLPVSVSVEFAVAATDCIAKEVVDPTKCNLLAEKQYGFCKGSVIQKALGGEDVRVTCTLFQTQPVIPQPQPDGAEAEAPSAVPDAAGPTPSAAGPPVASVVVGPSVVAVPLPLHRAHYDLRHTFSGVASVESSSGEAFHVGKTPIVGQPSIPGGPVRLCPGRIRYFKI
Description: (§1) The reaction was terminated by removing the mixture from the IODO-GEN tube and the iodinated peptide was purified on a Sephadex G-25 column (1×15 cm equilibrated with PBS).

[2] = biological target: T2, asialofetuin (Bos taurus, UniProt P12763); settings: ACS2P1-biotin 10 μg/ml; glycoprotein 3 μg/ml; n=3
T2 sequence (P12763 19-359): T1 sequence (P12763 19-359)
Description: as §1

[3] = biological target: fetuin (Bos taurus, UniProt P12763)
Description: as §1

[4] = biological target: αNeuAc(2-3)βGal(1-3)βGlcNAc-BSA (1-4) αFuc (Bos taurus, UniProt P02769); settings: SLe^a(C19.9), conjugate 50 μg/mL, 1 hour
Description: (§2) Binding assays were carried out essentially as described above using microtiter wells that were coated with 50 μl of BSA glycoconjugate (50 μg/ml) in 50 mM sodium phosphate buffer (pH 6.8) containing 5 mM MgCl2 nd 15 mM NaN3 for 16 hours at 4° C. The solution was removed by aspiration and replaced with 100 μl of 1% BSA in PBS containing 0.05% Tween 20 (PBST) and incubated at room temperature for an additional 2-3 hours. […] After incubating for 1 hour, the binding reaction was stopped by aspirating the solutions and the plate was washed with PBST (4×300 μl). Avidin-peroxidase (100 μl of a 1/3000 dilution of a 1 mg/ml solution in PBST) was added and incubated for an additional 1 hour. After washing the wells as described above, the substrate solution (1 mM ABTS in 5 mM citrate buffer, pH 4.2, containing 0.1% hydrogen peroxide, v/v) was added and the plates were incubated for 30 minutes. Binding assays for each BSA conjugate were done in triplicate and background binding was measured in wells coated with BSA only.

[5] = biological target: αNeuAc(2-3)βGal(1-3)βGlcNAc-BSA (Bos taurus, UniProt P02769); settings: SLe^c, conjugate 50 μg/mL, 1 hour
Description: as §2

[6] = biological target: αNeuAc(2-3)βGal(1-4)βGlcNAc-BSA (1-3) αFuc (Bos taurus, UniProt P02769); settings: SLe^x, conjugate 50 μg/mL, 1 hour
Description: as §2

[7] = biological target: αNeuAc(2-3)βGal(1-4)βGlcNAc-BSA (Bos taurus, UniProt P02769); settings: conjugate 50 μg/mL, 1 hour; for % Binding Relative to Fetuin of ACS2P1-b (n = 3): 0.1 μg ACS2P1-biotin; for % Binding Relative to Fetuin of SPYGRC-b (n = 3): 0.5 μg SPYGRC-b
Description: as §2

[8] = biological target: PT immobilized in microtiter wells (Bordetella pertussis, UniProt P04978+P04979)
Chain of PT immobilized in microtiter wells (P04978 whole entry, looked up): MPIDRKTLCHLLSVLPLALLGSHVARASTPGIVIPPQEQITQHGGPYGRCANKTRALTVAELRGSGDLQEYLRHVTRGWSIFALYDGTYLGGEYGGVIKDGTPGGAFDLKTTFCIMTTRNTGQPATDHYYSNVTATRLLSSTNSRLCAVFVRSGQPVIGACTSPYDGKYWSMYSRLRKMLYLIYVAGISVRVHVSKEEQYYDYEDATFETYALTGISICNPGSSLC
Chain of PT immobilized in microtiter wells (P04979 whole entry, looked up): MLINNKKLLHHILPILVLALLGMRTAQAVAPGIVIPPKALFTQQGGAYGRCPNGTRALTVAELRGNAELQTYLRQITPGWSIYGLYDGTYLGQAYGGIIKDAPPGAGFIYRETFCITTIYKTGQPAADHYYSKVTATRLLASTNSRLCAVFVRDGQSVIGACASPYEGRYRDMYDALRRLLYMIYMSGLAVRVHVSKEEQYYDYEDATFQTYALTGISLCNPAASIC

Chain of αNeuAc(2-3)βGal(1-4)βGlcNAc-BSA (P02769 25-607): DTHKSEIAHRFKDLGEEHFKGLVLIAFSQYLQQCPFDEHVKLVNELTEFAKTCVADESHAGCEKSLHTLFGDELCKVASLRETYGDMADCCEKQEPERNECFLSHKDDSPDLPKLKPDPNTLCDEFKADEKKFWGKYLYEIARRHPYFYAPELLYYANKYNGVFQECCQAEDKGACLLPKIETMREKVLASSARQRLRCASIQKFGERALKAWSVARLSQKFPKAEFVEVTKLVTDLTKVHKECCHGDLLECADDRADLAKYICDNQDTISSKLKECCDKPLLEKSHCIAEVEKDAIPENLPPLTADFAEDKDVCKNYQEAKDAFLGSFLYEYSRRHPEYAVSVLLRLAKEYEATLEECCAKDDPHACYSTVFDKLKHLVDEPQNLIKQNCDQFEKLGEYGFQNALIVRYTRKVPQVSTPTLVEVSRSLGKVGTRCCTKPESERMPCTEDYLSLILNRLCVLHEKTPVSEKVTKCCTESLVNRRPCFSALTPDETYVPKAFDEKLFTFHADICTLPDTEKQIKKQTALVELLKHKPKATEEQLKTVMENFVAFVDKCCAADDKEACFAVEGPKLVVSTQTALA
Chain of αNeuAc(2-3)βGal(1-3)βGlcNAc-BSA (1-4) αFuc (P02769 25-607): as above
Chain of αNeuAc(2-3)βGal(1-3)βGlcNAc-BSA (P02769 25-607): as above
Chain of αNeuAc(2-3)βGal(1-4)βGlcNAc-BSA (1-3) αFuc (P02769 25-607): as above

Substance | binding to asialoagalactofetuin relative to fetuin [1] [%] | binding to asialofetuin relative to fetuin [2] [%] | direct binding of biotinylated peptide to fetuin, in words [3] | reduction of binding of the peptide to fetuin by extensive iodination (IODO-GEN) ([3]; iodinated vs underivatized peptide, 10 μg/ml, n=3) [%] | % Binding Relative to Fetuin of ACS2P1-b (n = 3) ([4]; 0.1 μg ACS2P1-biotin) [%] | % Binding Relative to Fetuin of ACS2P1-b (n = 3) ([5]; 0.1 μg ACS2P1-biotin) [%] | % Binding Relative to Fetuin of ACS2P1-b (n = 3) ([6]; 0.1 μg ACS2P1-biotin) [%] | % Binding Relative to Fetuin of ACS2P1-b (n = 3) ([7]; SLacNAc (table row r10)) [%] | % Binding Relative to Fetuin of ACS2P1-b (n = 3) ([7]; SLacNAc (table row r12)) [%] | direct binding of biotinylated peptide to PT immobilized in microtiter wells, in words [8] | % Binding Relative to Fetuin of SPYGRC-b (n = 3) ([4]; 0.5 μg SPYGRC-b) [%] | % Binding Relative to Fetuin of SPYGRC-b (n = 3) ([5]; 0.5 μg SPYGRC-b) [%] | % Binding Relative to Fetuin of SPYGRC-b (n = 3) ([6]; 0.5 μg SPYGRC-b) [%] | % Binding Relative to Fetuin of SPYGRC-b (n = 3) ([7]; SLacNAc (table row r10)) [%] | % Binding Relative to Fetuin of SPYGRC-b (n = 3) ([7]; SLacNAc (table row r12)) [%]
BIOTIN-PQEQITQHGSPYGRC-CO—NH2 [ACS2P1-b] | 93±18 | 45±9 | concentration-dependent binding | 58±3 | 84 ± 14 | 70 ± 4 | 84 ± 3 | 117 ± 12 | 94 ± 2 | concentration-dependent binding | – | – | – | – | –
BIOTIN-SPYGRC-CO—NH2 [SPYGRC-b] | – | – | – | – | – | – | – | – | – | – | 103 ± 8 | 97 ± 12 | 120 ± 4 | 120 ± 7 | 122 ± 5
